PMC2096529 (Purinergic Signalling, 2005)

Columns and labels:
Test in all cases: Fluo-3 calcium mobilization, FLIPR, […]1 cells
Format in all cases: cell-based
human P2Y2 receptor = human P2Y2 receptor (Homo sapiens, UniProt P41231)
human P2Y6 receptor = human P2Y6 receptor (Homo sapiens, UniProt Q15077)
human P2Y4 receptor = human P2Y4 receptor (Homo sapiens, UniProt P51582)
human P2Y1 receptor = human P2Y1 receptor (Homo sapiens, UniProt P47900)
Chain of human P2Y1 receptor (P47900 whole entry): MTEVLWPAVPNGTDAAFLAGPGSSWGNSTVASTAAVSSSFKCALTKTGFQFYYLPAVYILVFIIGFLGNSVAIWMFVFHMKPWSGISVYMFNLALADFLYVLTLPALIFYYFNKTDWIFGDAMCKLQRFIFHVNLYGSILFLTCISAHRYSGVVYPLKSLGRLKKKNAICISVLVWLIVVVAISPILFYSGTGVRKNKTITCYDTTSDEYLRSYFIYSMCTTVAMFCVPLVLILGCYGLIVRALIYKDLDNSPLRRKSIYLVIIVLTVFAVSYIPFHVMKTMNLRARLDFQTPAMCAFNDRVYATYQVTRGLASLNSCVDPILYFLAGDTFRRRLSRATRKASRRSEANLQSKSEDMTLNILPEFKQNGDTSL

Chain of human P2Y6 receptor (Q15077 whole entry): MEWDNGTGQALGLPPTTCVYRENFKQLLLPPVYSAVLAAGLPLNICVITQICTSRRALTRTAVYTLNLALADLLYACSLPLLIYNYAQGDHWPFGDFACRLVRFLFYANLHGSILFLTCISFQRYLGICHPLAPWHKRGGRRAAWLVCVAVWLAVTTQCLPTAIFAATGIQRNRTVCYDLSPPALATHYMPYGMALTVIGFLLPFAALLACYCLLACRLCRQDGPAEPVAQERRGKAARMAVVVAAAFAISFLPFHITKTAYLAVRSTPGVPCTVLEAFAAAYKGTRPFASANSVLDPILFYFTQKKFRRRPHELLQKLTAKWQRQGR
Chain of human P2Y2 receptor (P41231 whole entry): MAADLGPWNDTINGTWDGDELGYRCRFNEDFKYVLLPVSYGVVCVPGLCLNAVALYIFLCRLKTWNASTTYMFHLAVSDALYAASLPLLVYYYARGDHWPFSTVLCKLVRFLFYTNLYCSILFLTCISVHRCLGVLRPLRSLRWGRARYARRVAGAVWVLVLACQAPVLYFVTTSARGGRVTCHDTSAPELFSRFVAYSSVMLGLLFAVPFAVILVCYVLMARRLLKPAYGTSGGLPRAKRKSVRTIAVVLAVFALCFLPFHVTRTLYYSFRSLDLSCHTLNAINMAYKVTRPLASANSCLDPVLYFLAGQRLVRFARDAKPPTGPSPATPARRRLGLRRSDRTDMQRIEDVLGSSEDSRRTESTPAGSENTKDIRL
Chain of human P2Y4 receptor (P51582 whole entry): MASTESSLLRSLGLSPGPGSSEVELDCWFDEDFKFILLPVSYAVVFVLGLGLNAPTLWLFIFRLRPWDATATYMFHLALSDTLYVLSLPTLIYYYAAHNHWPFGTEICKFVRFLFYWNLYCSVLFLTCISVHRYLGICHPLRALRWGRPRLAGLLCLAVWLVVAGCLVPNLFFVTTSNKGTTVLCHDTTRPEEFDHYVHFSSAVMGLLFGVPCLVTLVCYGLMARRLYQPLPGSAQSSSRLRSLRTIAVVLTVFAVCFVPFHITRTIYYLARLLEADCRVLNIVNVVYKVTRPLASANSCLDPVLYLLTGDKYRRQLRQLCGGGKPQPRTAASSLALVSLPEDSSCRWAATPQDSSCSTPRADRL

Compound	EC50 (human P2Y2 receptor)	EC50 (human P2Y6 receptor)	EC50 (human P2Y4 receptor)	EC50 (human P2Y1 receptor)
Nc1ncnc2c1ncn2[C@@H]1O[C@H](COP(=O)(O)OP(=O)(O)OP(=O)(O)O)[C@@H](O)[C@H]1O [ATP]	15 nM			
O=c1ccn([C@@H]2O[C@H](COP(=O)(O)OP(=O)(O)OP(=O)(O)O)[C@@H](O)[C@H]2O)c(=O)[nH]1 [compound 7, UTP]	15 nM	1470 nM	70 nM	
Nc1ncnc2c1ncn2[C@@H]1O[C@H](CO[P@](=O)(O)O[P@](=O)(O)OC[C@H]2O[C@@H](n3cnc4c(N)ncnc43)[C@H](O)[C@@H]2O)[C@@H](O)[C@H]1O [compound 13, AP2A]				4250 nM
Nc1ccn([C@@H]2O[C@H](COP(=O)(O)OP(=O)(O)OC[C@H]3O[C@@H](n4cnc5c(N)ncnc54)[C@H](O)[C@@H]3O)[C@@H](O)[C@H]2O)c(=O)n1 [compound 15, AP2C]	6900 nM	18800 nM		2110 nM
Nc1nc2c(ncn2[C@H]2C[C@H](O)[C@@H](COP(=O)(O)OP(=O)(O)OC[C@H]3O[C@@H](n4cnc5c(N)ncnc54)[C@H](O)[C@@H]3O)O2)c(=O)[nH]1 [compound 17, AP2dG]		> 10000 nM		24600 nM
Nc1nc2c(ncn2[C@@H]2O[C@H](COP(=O)(O)OP(=O)(O)OC[C@H]3O[C@@H](n4ccc(=O)[nH]c4=O)[C@H](O)[C@@H]3O)[C@@H](O)[C@H]2O)c(=O)[nH]1 [compound 18, UP2G]	2100 nM	7540 nM	4640 nM	
Nc1nc2c(ncn2[C@H]2C[C@H](O)[C@@H](COP(=O)(O)OP(=O)(O)OC[C@H]3O[C@@H](n4ccc(=O)[nH]c4=O)[C@H](O)[C@@H]3O)O2)c(=O)[nH]1 [compound 20, UP2dG]	29000 nM	> 10000 nM		> 10000 nM
O=c1[nH]cnc2c1ncn2[C@@H]1O[C@H](COP(=O)(O)OP(=O)(O)OC[C@H]2O[C@@H](n3cnc4c(=O)[nH]cnc43)[C@H](O)[C@@H]2O)[C@@H](O)[C@H]1O [compound 22, IP2I]	4800 nM	> 10000 nM	5060 nM	
O=c1[nH]c(=S)ccn1[C@@H]1O[C@H](COP(=O)(O)OP(=O)(O)OC[C@H]2O[C@@H](n3ccc(=S)[nH]c3=O)[C@H](O)[C@@H]2O)[C@@H](O)[C@H]1O [compound 23, 4-thioUP24-thioU]	29100 nM	25200 nM	33900 nM	> 10000 nM
Nc1ccn([C@@H]2O[C@H](COP(=O)(O)OP(=O)(O)OP(=O)(O)OC[C@H]3O[C@@H](n4cnc5c(N)ncnc54)[C@H](O)[C@@H]3O)[C@@H](O)[C@H]2O)c(=O)n1 [compound 27, AP3C]	6000 nM	> 10000 nM		85 nM
Nc1ccn([C@@H]2O[C@H](COP(=O)(O)OP(=O)(O)OP(=O)(O)OC[C@H]3O[C@@H](n4ccc(=O)[nH]c4=O)[C@H](O)[C@@H]3O)[C@@H](O)[C@H]2O)c(=O)n1 [compound 31, UP3C]	2000 nM	520 nM	16700 nM	
Nc1nc2c(ncn2[C@@H]2O[C@H](COP(=O)(O)OP(=O)(O)OP(=O)(O)OC[C@H]3O[C@@H](n4ccc(=O)[nH]c4=O)[C@H](O)[C@@H]3O)[C@@H](O)[C@H]2O)c(=O)[nH]1 [compound 32, UP3G]		380 nM		
Nc1ccn([C@@H]2O[C@H](COP(=O)(O)OP(=O)(O)OP(=O)(O)OC[C@H]3O[C@@H](n4cnc5c(=O)[nH]cnc54)[C@H](O)[C@@H]3O)[C@@H](O)[C@H]2O)c(=O)n1 [compound 35, CP3I]	> 10000 nM			> 10000 nM
Nc1ccn([C@@H]2O[C@H](COP(=O)(O)OP(=O)(O)OP(=O)(O)OP(=O)(O)OC[C@H]3O[C@@H](n4cnc5c(N)ncnc54)[C@H](O)[C@@H]3O)[C@@H](O)[C@H]2O)c(=O)n1 [compound 41, AP4C]	150 nM			750 nM
O=c1ccn([C@@H]2O[C@H](COP(=O)(O)OP(=O)(O)OP(=O)(O)OP(=O)(O)OC[C@H]3O[C@@H](n4ccc(=O)[nH]c4=O)[C@H](O)[C@@H]3O)[C@@H](O)[C@H]2O)c(=O)[nH]1 [compound 43, UP4U]		24800 nM	200 nM	
Nc1ccn([C@@H]2O[C@H](COP(=O)(O)OP(=O)(O)OP(=O)(O)OP(=O)(O)OC[C@H]3O[C@@H](n4ccc(=O)[nH]c4=O)[C@H](O)[C@@H]3O)[C@@H](O)[C@H]2O)c(=O)n1 [compound 44, UP4C]	460 nM	12100 nM	850 nM	
O=c1ccn([C@@H]2O[C@H](COP(=O)(O)OP(=O)(O)OP(=O)(O)OP(=O)(O)OC[C@H]3O[C@@H](n4ccc(=S)[nH]c4=O)[C@H](O)[C@@H]3O)[C@@H](O)[C@H]2O)c(=O)[nH]1 [compound 47, UP44-thioU]	40 nM	190000 nM	170 nM	
Nc1nc2c(ncn2[C@H]2C[C@H](O)[C@@H](COP(=O)(O)OP(=O)(O)OP(=O)(O)OP(=O)(O)OC[C@H]3O[C@@H](n4ccc(=O)[nH]c4=O)[C@H](O)[C@@H]3O)O2)c(=O)[nH]1 [compound 49, UP4dG]	60 nM	1680 nM	140 nM	
Nc1ccn([C@@H]2O[C@H](COP(=O)(O)OP(=O)(O)OP(=O)(O)OP(=O)(O)OC[C@H]3O[C@@H](n4ccc(=S)[nH]c4=O)[C@H](O)[C@@H]3O)[C@@H](O)[C@H]2O)c(=O)n1 [compound 55, CP44-thioU]	36 nM	5220 nM	110 nM	

Now from value to molecule:

EC50 (human P2Y2 receptor)	EC50 (human P2Y6 receptor)	EC50 (human P2Y4 receptor)	EC50 (human P2Y1 receptor)	Compound
	33000 nM			O=c1ccn([C@@H]2O[C@H](COP(=O)(O)OP(=O)(O)OC[C@H]3O[C@@H](n4ccc(=O)[nH]c4=O)[C@H](O)[C@@H]3O)[C@@H](O)[C@H]2O)c(=O)[nH]1 [compound 4, UP2U]
23400 nM			2850 nM	Nc1ncnc2c1ncn2[C@@H]1O[C@H](COP(=O)(O)OP(=O)(O)OC[C@H]2O[C@@H](n3ccc(=O)[nH]c3=O)[C@H](O)[C@@H]2O)[C@@H](O)[C@H]1O [compound 14, AP2U]
1300 nM	9140 nM	1500 nM	26500 nM	Nc1nc2c(ncn2[C@@H]2O[C@H](COP(=O)(O)OP(=O)(O)OC[C@H]3O[C@@H](n4cnc5c(N)ncnc54)[C@H](O)[C@@H]3O)[C@@H](O)[C@H]2O)c(=O)[nH]1 [compound 16, AP2G]
28500 nM			11 nM	Nc1ncnc2c1ncn2[C@@H]1O[C@H](COP(=O)(O)OP(=O)(O)OP(=O)(O)OC[C@H]2O[C@@H](n3cnc4c(N)ncnc43)[C@H](O)[C@@H]2O)[C@@H](O)[C@H]1O [compound 25, AP3A]
2000 nM	170 nM		39 nM	Nc1ncnc2c1ncn2[C@@H]1O[C@H](COP(=O)(O)OP(=O)(O)OP(=O)(O)OC[C@H]2O[C@@H](n3ccc(=O)[nH]c3=O)[C@H](O)[C@@H]2O)[C@@H](O)[C@H]1O [compound 26, AP3U]
4500 nM	1310 nM			O=c1ccn([C@@H]2O[C@H](COP(=O)(O)OP(=O)(O)OP(=O)(O)OC[C@H]3O[C@@H](n4cnc5c(=O)[nH]cnc54)[C@H](O)[C@@H]3O)[C@@H](O)[C@H]2O)c(=O)[nH]1 [compound 33, UP3I]
470 nM	280 nM	1980 nM		Nc1nc2c(ncn2[C@H]2C[C@H](O)[C@@H](COP(=O)(O)OP(=O)(O)OP(=O)(O)OC[C@H]3O[C@@H](n4ccc(=O)[nH]c4=O)[C@H](O)[C@@H]3O)O2)c(=O)[nH]1 [compound 34, UP3dG]
> 10000 nM	> 10000 nM	6410 nM		Nc1nc2c(ncn2[C@@H]2O[C@H](COP(=O)(O)OP(=O)(O)OP(=O)(O)OC[C@H]3O[C@@H](n4cnc5c(=O)[nH]cnc54)[C@H](O)[C@@H]3O)[C@@H](O)[C@H]2O)c(=O)[nH]1 [compound 37, IP3G]
54 nM			320 nM	Nc1ncnc2c1ncn2[C@@H]1O[C@H](COP(=O)(O)OP(=O)(O)OP(=O)(O)OP(=O)(O)OC[C@H]2O[C@@H](n3cnc4c(N)ncnc43)[C@H](O)[C@@H]2O)[C@@H](O)[C@H]1O [compound 39, AP4A]
350 nM		1450 nM	4750 nM	Nc1ncnc2c1ncn2[C@@H]1O[C@H](COP(=O)(O)OP(=O)(O)OP(=O)(O)OP(=O)(O)OC[C@H]2O[C@@H](n3ccc(=O)[nH]c3=O)[C@H](O)[C@@H]2O)[C@@H](O)[C@H]1O [compound 40, AP4U]
170 nM			550 nM	Nc1ncnc2c1ncn2[C@@H]1O[C@H](COP(=O)(O)OP(=O)(O)OP(=O)(O)OP(=O)(O)OC[C@H]2O[C@@H](n3cnc4c(=O)[nH]cnc43)[C@H](O)[C@@H]2O)[C@@H](O)[C@H]1O [compound 42, AP4I]
520 nM	> 10000 nM	280 nM		O=c1ccn([C@@H]2O[C@H](COP(=O)(O)OP(=O)(O)OP(=O)(O)OP(=O)(O)OC[C@H]3O[C@@H](n4cnc5c(=O)[nH]cnc54)[C@H](O)[C@@H]3O)[C@@H](O)[C@H]2O)c(=O)[nH]1 [compound 45, UP4I]
180 nM		350 nM		Cc1cn([C@H]2C[C@H](O)[C@@H](COP(=O)(O)OP(=O)(O)OP(=O)(O)OP(=O)(O)OC[C@H]3O[C@@H](n4ccc(=O)[nH]c4=O)[C@H](O)[C@@H]3O)O2)c(=O)[nH]c1=O [compound 46, UP4T]
230 nM	> 10000 nM	470 nM		O=c1ccn([C@@H]2O[C@H](COP(=O)(O)OP(=O)(O)OP(=O)(O)OP(=O)(O)OC[C@H]3O[C@@H](n4cnc5c(=O)[nH]cnc54)C[C@@H]3O)[C@@H](O)[C@H]2O)c(=O)[nH]1 [compound 48, UP4dI]
	16000 nM	1220 nM		Nc1ccn([C@H]2C[C@H](O)[C@@H](COP(=O)(O)OP(=O)(O)OP(=O)(O)OP(=O)(O)OC[C@H]3O[C@@H](n4ccc(=O)[nH]c4=O)[C@H](O)[C@@H]3O)O2)c(=O)n1 [compound 51, UP4dC]
82 nM	6820 nM	90 nM		O=c1[nH]c(=S)ccn1[C@@H]1O[C@H](COP(=O)(O)OP(=O)(O)OP(=O)(O)OP(=O)(O)OC[C@H]2O[C@@H](n3ccc(=S)[nH]c3=O)[C@H](O)[C@@H]2O)[C@@H](O)[C@H]1O [compound 56, 4-thioUP44-thioU]
